Measurements: US11365199B2, “Pyrazole compounds as modulators of FSHR and uses thereof” (Merck Patent GmbH, priority 2013, dated 2022)
pEC50: −log10 of the molar value.

Legend:
[1] = molecular target: T1, follicle-stimulating hormone (FSH) receptor (Rattus norvegicus, UniProt P20395); assay: Rat granulosa EC50 FSH (Assay B); format: cell-based; settings: rat granulosa cells; read-out: Assay B: Rat granulosa EC50 FSH
T1 construct: endogenous in cells; host or cells: primary rat granulosa cells
T1 sequence (P20395 18-692): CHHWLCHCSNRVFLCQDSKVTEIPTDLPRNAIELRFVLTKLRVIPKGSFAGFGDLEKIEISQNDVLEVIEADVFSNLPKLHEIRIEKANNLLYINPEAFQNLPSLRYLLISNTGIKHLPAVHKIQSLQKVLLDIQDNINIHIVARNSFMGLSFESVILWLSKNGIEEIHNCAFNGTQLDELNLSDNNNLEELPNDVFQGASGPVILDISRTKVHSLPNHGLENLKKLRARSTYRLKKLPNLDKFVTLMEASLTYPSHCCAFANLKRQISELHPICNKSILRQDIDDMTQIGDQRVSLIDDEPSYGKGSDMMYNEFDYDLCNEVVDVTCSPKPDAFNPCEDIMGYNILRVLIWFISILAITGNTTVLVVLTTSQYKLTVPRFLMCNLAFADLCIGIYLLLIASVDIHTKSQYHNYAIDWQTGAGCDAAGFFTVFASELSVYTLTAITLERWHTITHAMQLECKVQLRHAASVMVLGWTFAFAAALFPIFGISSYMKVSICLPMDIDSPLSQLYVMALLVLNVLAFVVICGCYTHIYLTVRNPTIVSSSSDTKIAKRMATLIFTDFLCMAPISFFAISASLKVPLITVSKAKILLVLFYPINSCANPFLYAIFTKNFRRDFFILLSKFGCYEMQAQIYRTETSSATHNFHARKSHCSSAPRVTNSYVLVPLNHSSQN
Experimental: Rat Granulosa EC50 FSH (Assay B)
The assay was performed pursuant to the teaching of Yanofsky et al. (2006) Allosteric activation of the follicle-stimulating hormone (FSH) receptor by selective, nonpeptide agonists (JBC 281(19): 13226-13233, which is incorporated by reference in the disclosure of the invention).

FSHR = molecular target: T2, FSHR (Homo sapiens, UniProt P23945); assay: EC50 of cyclic AMP production in CHO FSHR cells + EC20 FSH (Assay A); format: cell-based; settings: CHO FSHR cells + EC20 FSH, cAMP HTRF; read-out: Assay A: EC50 of cyclic AMP production
T2 construct: expressed in transfected cells; host or cells: CHO (Cho-FSHR-LUC-1-1-43)
T2 sequence (P23945 18-695): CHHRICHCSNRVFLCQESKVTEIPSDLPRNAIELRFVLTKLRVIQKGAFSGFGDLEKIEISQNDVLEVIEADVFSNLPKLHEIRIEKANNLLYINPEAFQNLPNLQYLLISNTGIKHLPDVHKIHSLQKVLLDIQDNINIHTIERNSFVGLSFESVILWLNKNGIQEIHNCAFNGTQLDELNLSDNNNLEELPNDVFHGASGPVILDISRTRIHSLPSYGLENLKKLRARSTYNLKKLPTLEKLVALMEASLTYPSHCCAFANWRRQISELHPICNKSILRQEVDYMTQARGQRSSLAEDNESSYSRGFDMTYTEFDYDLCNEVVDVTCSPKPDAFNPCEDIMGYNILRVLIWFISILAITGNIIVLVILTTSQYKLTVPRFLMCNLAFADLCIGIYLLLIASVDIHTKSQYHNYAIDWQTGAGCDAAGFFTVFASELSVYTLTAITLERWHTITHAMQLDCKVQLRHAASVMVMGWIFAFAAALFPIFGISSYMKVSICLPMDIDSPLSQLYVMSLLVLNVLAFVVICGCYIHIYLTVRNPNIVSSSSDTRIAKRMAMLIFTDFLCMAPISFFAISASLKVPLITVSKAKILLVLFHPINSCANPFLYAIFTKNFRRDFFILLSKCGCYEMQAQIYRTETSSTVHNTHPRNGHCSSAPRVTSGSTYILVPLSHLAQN
In short: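 cAMP HTRF read-out (665 nm/620 nm ratio) after 1 h at 37° C of Cho-FSHR-LUC cells treated with serially diluted test compound plus EC20 FSH ([…]) and IBMX (final 200 μM). Responses given as percent of maximal FSH-standard effect.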

Structure (SMILES) | pEC50 [1] | pEC50 (FSHR)
COCOCCn1cc(-c2cc3c(cc2OC)OCc2c(C(=O)N4CCOCC4(C)C)nn(-c4ccsc4)c2-3)cn1 [Compound 205, (3,3-Dimethyl-morpholin-4-yl)-{7-methoxy-8-[1-(2-methoxymethoxy-ethyl)-1H-pyrazol-4-yl]-1-thiophen-3-yl-1,4-dihydro-chromeno[4,3-c]pyrazol-3-yl}-methanone] | > 7.00 | > 7.00
COc1cc2c(cc1-c1cn[nH]c1)-c1c(c(C(=O)N(C)C(C)(C)C)nn1-c1ccsc1)CO2 [Compound 1, 7-Methoxy-8-(1H-pyrazol-4-yl)-1-thiophen-3-yl-1,4-dihydro-chromeno[4,3-c]pyrazole-3-carboxylic Acid tert-butyl-methyl-amide] | > 7.00 | > 7.00
[2H]C([2H])([2H])OCC1(N(C(=O)c2nn(-c3ccsc3)c3c2COc2cc(OC)c(-c4ccn(C)n4)cc2-3)C([2H])([2H])[2H])COC1 [Compound 114] | 5.30 to 6.00 | > 7.00
COc1cc2c(cc1-c1ccn(C)n1)-c1c(c(C(=O)N(C)CC3(C)COC3)nn1-c1ccsc1)CO2 [Compound 102, 7-Methoxy-8-(1-methyl-1H-pyrazol-3-yl)-1-thiophen-3-yl-1,4-dihydro-chromeno[4,3-c]pyrazole-3-carboxylic acid methyl-(3-methyl-oxetan-3-ylmethyl)-amide] | – | 6.00 to 7.00
COc1cc2c(cc1CC(C)C)-c1c(c(C(=O)NC3(CO)COC3)nn1-c1ccsc1)CO2 [Compound 141, 8-Isobutyl-7-methoxy-1-thiophen-3-yl-1,4-dihydro-chromeno[4,3-c]pyrazole-3-carboxylic acid (3-hydroxymethyl-oxetan-3-yl)-amide] | – | 5.30 to 6.00
COc1cc2c(cc1-c1cnc(C)s1)-c1c(c(C(=O)N(C)C(C)(C)C)nn1-c1ccsc1)CO2 [Compound 73, 7-Methoxy-8-(2-methyl-thiazol-5-yl)-1-thiophen-3-yl-1,4-dihydro-chromeno[4,3-c]pyrazole-3-carboxylic acid tert-butyl-methyl-amide] | – | > 7.00
[2H]C([2H])([2H])N(C(=O)c1nn(-c2ccsc2)c2c1COc1cc(OC)c(-c3ccnn3C)cc1-2)C1(C)COC1 [Compound 118] | – | > 7.00
CCCn1nc(C)cc1-c1cc2c(cc1OC)OCc1c(C(=O)N3CCOCC3(C)C)nn(-c3ccsc3)c1-2 [Compound 212, (3,3-Dimethyl-morpholin-4-yl)-[7-methoxy-8-(5-methyl-2-propyl-2H-pyrazol-3-yl)-1-thiophen-3-yl-1,4-dihydro-chromeno[4,3-c]pyrazol-3-yl]-methanone] | – | > 7.00
COc1cc2c(cc1OC(C)C)-c1c(c(C(=O)NCCCN)nn1-c1ccsc1)CO2 [Compound 27, 8-Isopropoxy-7-methoxy-1-thiophen-3-yl-1,4-dihydro-chromeno[4,3-c]pyrazole-3-carboxylic acid (3-amino-propyl)-amide] | – | < 5.30
COc1cc2c(cc1-c1cc[nH]n1)-c1c(c(C(=O)N(C)C(C)(C)C)nn1-c1ccsc1)CO2 [Compound 65, 7-Methoxy-8-(1H-pyrazol-3-yl)-1-thiophen-3-yl-1,4-dihydro-chromeno[4,3-c]pyrazole-3-carboxylic acid tert-butyl-methyl-amide] | – | > 7.00
COc1cc2c(cc1C=C(C)C)-c1c(c(C(=O)N(C)C(C)(C)C)nn1-c1cccs1)CO2 [Compound 90, 7-Methoxy-8-(2-methyl-propenyl)-1-thiophen-2-yl-1,4-dihydro-chromeno[4,3-c]pyrazole-3-carboxylic Acid tert-butyl-methyl-amide] | – | > 7.00
COc1cc2c(cc1-c1ccnn1C)-c1c(c(C(=O)NC3(CO)COC3)nn1-c1ccsc1)CO2 [Compound 111, 7-Methoxy-8-(2-methyl-2H-pyrazol-3-yl)-1-thiophen-3-yl-1,4-dihydro-chromeno[4,3-c]pyrazole-3-carboxylic acid (3-hydroxymethyl-oxetan-3-yl)-amide] | – | 6.00 to 7.00
COc1cc2c(cc1-c1cnoc1)-c1c(c(C(=O)N(C)C(C)(C)C)nn1-c1ccsc1)CO2 [Compound 72, 8-Isoxazol-4-yl-7-methoxy-1-thiophen-3-yl-1,4-dihydro-chromeno[4,3-c]pyrazole-3-carboxylic acid tert-butyl-methyl-amide] | – | > 7.00

The next lines start with the values.

pEC50 [1] | pEC50 (FSHR) | Structure (SMILES)
> 7.00 | > 7.00 | COc1cc2c(cc1-c1ccn(C)c1)-c1c(c(C(=O)N3CCN(C)CC3(C)C)nn1-c1ccsc1)CO2 [Compound 160, [7-Methoxy-8-(1-methyl-1H-pyrrol-3-yl)-1-thiophen-3-yl-1,4-dihydro-chromeno[4,3-c]pyrazol-3-yl]-(2,2,4-trimethyl-piperazin-1-yl)-methanone]
– | < 5.30 | COc1cc2c(cc1-c1ccn(C)n1)-c1c(c(C(=O)N[C@H]3CC[C@@H](O)C3)nn1-c1ccsc1)CO2 [Compound 172, 7-Methoxy-8-(1-methyl-1H-pyrazol-3-yl)-1-thiophen-3-yl-1,4-dihydro-chromeno[4,3-c]pyrazole-3-carboxylic acid ((1S,3R)-3-hydroxy-cyclopentyl)-amide]
– | > 7.00 | COc1cc2c(cc1CC(C)C)-c1c(c(C(=O)N3CCOCC3(C)C)nn1-c1ccsc1)CO2 [Compound 77, (3,3-Dimethyl-morpholin-4-yl)-(8-isobutyl-7-methoxy-1-thiophen-3-yl-1,4-dihydro-chromeno[4,3-c]pyrazol-3-yl)-methanone]
– | 6.00 to 7.00 | COc1cc2c(cc1-c1cnn(CCN(C)C)c1)-c1c(c(C(=O)N3CCOCC3(C)C)nn1-c1ccsc1)CO2 [Compound 203, {8-[1-(2-Dimethylamino-ethyl)-1H-pyrazol-4-yl]-7-methoxy-1-thiophen-3-yl-1,4-dihydro-chromeno[4,3-c]pyrazol-3-yl}-(3,3-dimethyl-morpholin-4-yl)-methanone]
– | 6.00 to 7.00 | CNC(=O)C1CCCN(C(=O)c2nn(-c3ccsc3)c3c2COc2cc(OC)c(C=C(C)C)cc2-3)CC1 (stereo not shown) [Compound 42, 1-[7-Methoxy-8-(2-methyl-propenyl)-1-thiophen-3-yl-1,4-dihydro-chromeno[4,3-c]pyrazole-3-carbonyl]-azepane-4-carboxylic Acid Methylamide]
– | < 5.30 | COc1cc2c(cc1C=C(C)C)-c1c(c(C(=O)NC3CCCC(C(=O)OC(C)(C)C)C3)nn1-c1ccsc1)CO2 (stereo not shown) [Compound 15, 3-{[7-Methoxy-8-(2-methyl-propenyl)-1-thiophen-3-yl-1,4-dihydro-chromeno[4,3-c]pyrazole-3-carbonyl]-amino}-cyclohexanecarboxylic acid tert-butyl ester]
– | < 5.30 | COc1cc2c(cc1-c1ccn(C)c1)-c1c(c(C(=O)N[C@H]3CC[C@@H](O)C3)nn1-c1ccsc1)CO2 [Compound 173, 7-Methoxy-8-(1-methyl-1H-pyrrol-3-yl)-1-thiophen-3-yl-1,4-dihydro-chromeno[4,3-c]pyrazole-3-carboxylic acid ((1S,3R)-3-hydroxy-cyclopentyl)-amide]
– | 6.00 to 7.00 | COc1cc2c(cc1C=C(C)C)-c1c(c(C(=O)N3CCCC(C(=O)N(C)C)CC3)nn1-c1ccsc1)CO2 (stereo not shown) [Compound 41, 1-[7-Methoxy-8-(2-methyl-propenyl)-1-thiophen-3-yl-1,4-dihydro-chromeno[4,3-c]pyrazole-3-carbonyl]-azepane-4-carboxylic Acid Dimethylamide]
